Literature values as cited in US20210128795A1, “SPIRAL COATED STENT WITH CONTROLLABLE GRADIENT DEGRADATION, PREPARATION METHOD THEREOF AND APPLICATION THEREOF” (Zhuhai Ruizhan Biomaterials Co., Ltd., priority 2018, published 2021).
Read-outs that look alike come from different tables or passages of the source.

Tested on: rats

| Structure (SMILES) | LD50 value (median lethal dose) (rats per os) | LD50 value (median lethal dose) (rat, in vivo) |
| --- | --- | --- |
| OCCCO [1,3-propanediol] | 16,080 mg/kg | – |
| OCCCCO [1,4-butanediol] | – | 1,525 mg/kg |
